“And” between values parts separate entries of the source, which are not always exact repeats. Equal values may be shown once.
How the values were obtained:
[1] = for vapor or sublimation pressure: Liquid, Rate of evaporation; for Normal melting temperature: DTA
[2] = Molar enthalpy of transition or fusion; conditions: DSC
[3] = molar heat capacity at constant pressure; conditions: 101.33 kPa, Small sample (50 mg) DSC

c1ccc2c(c1)OCCOCCOCCOc1ccccc1OCCOCCOCCO2 [dibenzo-24-crown-8]
Conditions | Molar enthalpy of transition or fusion [kcal/mol] | Normal melting temperature [°C] | Triple point temperature [K] | vapor or sublimation pressure
[1], 545 K | – | – | – | 0.114 kPa and 0.1131 kPa and 0.1132 kPa
[1], 550 K | – | – | – | 0.1434 kPa and 0.1414 kPa and 0.1402 kPa
[1], 555 K | – | – | – | 0.1736 kPa and 0.1757 kPa and 0.1786 kPa
[1], 560 K | – | – | – | 0.2155 kPa and 0.2204 kPa and 0.2198 kPa
[1], 565 K | – | – | – | 0.2674 kPa and 0.2714 kPa and 0.2733 kPa
[1], 570 K | – | – | – | 0.3406 kPa and 0.3372 kPa and 0.3358 kPa
[1], 575 K | – | – | – | 0.4082 kPa and 0.4133 kPa and 0.4103 kPa
[1], 580 K | – | – | – | 0.4998 kPa and 0.5082 kPa and 0.5036 kPa
[1], 585 K | – | – | – | 0.607 kPa and 0.6171 kPa and 0.6145 kPa
[1], 590 K | – | – | – | 0.7381 kPa and 0.7487 kPa and 0.7461 kPa
[1], 595 K | – | – | – | 0.9028 kPa and 0.897 kPa and 0.9062 kPa
[1], Crystal 1 | – | 100.72 | – | –
[1], Crystal 2, DSC | – | – | 346.32 | –
[2], Crystal 1 | 12.8 | – | – | –
[2], Crystal 2 | 0.234 | – | – | –

[3]
Conditions | molar heat capacity at constant pressure [J/K/mol]
295 K, Crystal 2 | 602
298.15 K, Crystal 2 | 611.3
300 K, Crystal 2 | 615.7
305 K, Crystal 2 | 627.3
310 K, Crystal 2 | 638.8
315 K, Crystal 2 | 648
320 K, Crystal 2 | 658.1
325 K, Crystal 2 | 668.9
330 K, Crystal 2 | 681.3
335 K, Crystal 2 | 692.8
340 K, Crystal 2 | 706.2
355 K, Crystal 1 | 755.6
360 K, Crystal 1 | 771.8
365 K, Crystal 1 | 802
380 K, Liquid | 921.2
385 K, Liquid | 922.5
390 K, Liquid | 927.3
395 K, Liquid | 930.4
400 K, Liquid | 934.6
405 K, Liquid | 938.7
410 K, Liquid | 943.5
415 K, Liquid | 947.5
420 K, Liquid | 956.1
425 K, Liquid | 962.6
430 K, Liquid | 968.4
435 K, Liquid | 974.4
440 K, Liquid | 979
445 K, Liquid | 985.6
450 K, Liquid | 990.7
455 K, Liquid | 996.8
460 K, Liquid | 1003.2
465 K, Liquid | 1009.9
470 K, Liquid | 1016.5
475 K, Liquid | 1020.4
480 K, Liquid | 1025.3
485 K, Liquid | 1030.6
490 K, Liquid | 1036.3

[Al+3].[Al+3].[O-2].[O-2].[O-2] [aluminum oxide (Al2O3)]
[3], Crystal
Conditions | molar heat capacity at constant pressure [J/K/mol]
298.15 K | 78.8
350 K | 88.2
450 K | 101.33

c1ccc2cc3ccccc3cc2c1 [anthracene]
[1]
Conditions | vapor or sublimation pressure [kPa]
494 K | 5.794
496 K | 6.242
498 K | 6.713
500 K | 7.174
502 K | 7.662
504 K | 8.173
506 K | 8.694
508 K | 9.227
510 K | 9.775
512 K | 10.31

c1ccc2c(c1)OCCOCCOCCOCCOc1ccccc1OCCOCCOCCOCCO2 [dibenzo-30-crown-10]
Conditions | Molar enthalpy of transition or fusion [kcal/mol] | Normal melting temperature [°C] | vapor or sublimation pressure
[1], 545 K | – | – | 0.0347 kPa and 0.0354 kPa
[1], 550 K | – | – | 0.0405 kPa and 0.0424 kPa and 0.0433 kPa
[1], 555 K | – | – | 0.0515 kPa and 0.0526 kPa and 0.0536 kPa
[1], 560 K | – | – | 0.0655 kPa and 0.0614 kPa and 0.0649 kPa
[1], 565 K | – | – | 0.0772 kPa and 0.0781 kPa and 0.0764 kPa
[1], 570 K | – | – | 0.0969 kPa and 0.0924 kPa and 0.0946 kPa
[1], 575 K | – | – | 0.116 kPa and 0.118 kPa and 0.1176 kPa
[1], 580 K | – | – | 0.1429 kPa and 0.1455 kPa and 0.1444 kPa
[1], 585 K | – | – | 0.1768 kPa and 0.1779 kPa and 0.188 kPa
[1], 590 K | – | – | 0.2184 kPa and 0.2143 kPa and 0.2192 kPa
[1], 595 K | – | – | 0.2675 kPa and 0.2625 kPa and 0.2682 kPa
[1], Crystal | – | 104.5 | –
[2], Crystal | 20.7 | – | –

[3]
Conditions | molar heat capacity at constant pressure [J/K/mol]
295 K, Crystal | 668.8
298.15 K, Crystal | 680.4
300 K, Crystal | 686.9
305 K, Crystal | 700.3
310 K, Crystal | 715.3
315 K, Crystal | 728.4
320 K, Crystal | 741.6
325 K, Crystal | 755.5
330 K, Crystal | 769.9
335 K, Crystal | 783.3
340 K, Crystal | 797
345 K, Crystal | 811.5
350 K, Crystal | 826.4
355 K, Crystal | 844.9
360 K, Crystal | 868.2
390 K, Liquid | 1144.6
395 K, Liquid | 1148.9
400 K, Liquid | 1153
405 K, Liquid | 1159.5
410 K, Liquid | 1164.6
415 K, Liquid | 1169.3
420 K, Liquid | 1179.2
425 K, Liquid | 1186.2
430 K, Liquid | 1187.9
435 K, Liquid | 1195
440 K, Liquid | 1196.6
445 K, Liquid | 1199.2
450 K, Liquid | 1201.2
455 K, Liquid | 1200.9
460 K, Liquid | 1201.6
465 K, Liquid | 1202
470 K, Liquid | 1201.9

Reference: the NIST ThermoML archive (doi:10.1016/j.tca.2016.03.013)
